{
  "source": "patent US8394783B2",
  "about": "“Polysaccharide gel formulation having multi-stage bioactive agent delivery” (Allergan, Inc., priority 2007, dated 2013)",
  "key": {"[1]": {"tested_on": "Hyaluronidase", "test": "Enzymatic degradation study (Morgan-Elson colorimetric assay)", "assay_type": "biochemical", "details": "generally an order of magnitude less TA gives the same inhibition as CSA", "description": "The HA filling gels prepared in Examples 1 and 2, were evaluated for resistance to enzymatic degradation using the Morgan-Elson colorimetric assay. This assay was applied to estimate the extend of enzymatic degradation by measuring changes in the molecular weight of the HA chains.\nHyaluronidase (0.1-10 mg) was added to each HA formulation, incubated for 10-250 mins at 37° C. followed by addition of 0.1 mL of a 0.8 M potassium tetraborate solution and heating at 100° C. for 10 min. The samples were supplemented with 3 mL of a 10% (wt) p-dimethylaminobenzaldehyde solution in acetic acid and incubated at 37° C. for 10-120 mins. The process was repeated for each HA formulation, omitting the enzyme addition, to prepare a control sample. The change in the optical density (OD) at 585 nm between the enzymatically degraded sample and the control sample was used to quantify the extent of degradation for each formulation."}, "[2]": {"tested_on": "Hyaluronidase", "test": "Enzymatic degradation study (SEC-MALS soluble HA assay)", "assay_type": "biochemical", "source_text": "The HA filling gels prepared in Examples 1 and 2, were further evaluated for resistance to enzymatic degradation by using a SEC-MALS (Size Exclusion Multi-Angle Light Scattering) based soluble HA assay. This assay was applied to quantify degradation by evaluating the soluble HA content in each sample (defined as the portion of the gel that can pass through a 0.2-1.0 μm filter). The difference in the soluble HA content, between an enzymatically degraded sample and a control sample was used to quantify the extent of degradation for each HA formulation.\nThe SEC-MALS tests were performed using an Agilent size exclusion chromatography system equipped with Wyatt light scattering and refractive index units. Hyaluronidase (0.1-10 mg) was added to each HA formulation, incubated for 10-250 mins at 37° C. followed by addition of 0.1 ml of a 0.8 M potassium tetraborate solution and heating at 100° C. for 10 mins. The samples were diluted in PBS, filtered through a 0.2-1.0 μm filter and injected into the SEC-MALS system. The process was repeated for each HA formulation, omitting the enzyme addition, to prepare a control sample. The soluble HA content of the enzymatically degraded sample, the control sample as well as the difference between the two is summarized in FIG. 3."}},
  "data": [
    {"smiles": "O=C(OC[C@H]1O[C@@H](OC(=O)c2cc(O)c(O)c(OC(=O)c3cc(O)c(O)c(O)c3)c2)[C@H](OC(=O)c2cc(O)c(O)c(OC(=O)c3cc(O)c(O)c(O)c3)c2)[C@@H](OC(=O)c2cc(O)c(O)c(OC(=O)c3cc(O)c(O)c(O)c3)c2)[C@@H]1OC(=O)c1cc(O)c(O)c(OC(=O)c2cc(O)c(O)c(O)c2)c1)c1cc(O)c(O)c(OC(=O)c2cc(O)c(O)c(O)c2)c1", "note": "[TA, tannic acid]", "values": [
      {"measurement": "inhibitory activity of TA compared with CSA", "setting": "[1]", "value": "higher inhibitory activity than CSA"},
      {"measurement": "inhibitory activity of TA compared with CSA", "setting": "[2]", "value": "significantly higher than that of CSA"}
    ]}
  ]
}
